Values of other authors as cited in patent publication US10753947B2, “Methods for screening voltage-gated proteins” (D.E. Shaw Research, LLC, priority 2012, dated 2020).
Numbering of substitutions follows the chain as printed. Read-outs that look alike come from different tables or passages of the source.

What was measured:
[1] = target: Kv1.3 (Homo sapiens, UniProt P22001); conditions: cited from earlier work
[2] = target: Kv1.1 (Homo sapiens, UniProt Q09470); conditions: cited from earlier work
[3] = target: Kv1.2 (Homo sapiens, UniProt P16389); conditions: cited from earlier work
[4] = target: Shaker (Drosophila melanogaster, UniProt P08510, DUP563-563/L584V/Q583H); conditions: Table 5, cited from earlier work
[5] = target: T1, Kv2.1 (Homo sapiens, UniProt Q14721); conditions: Table 5; read-out: IC50, channel Kv2.1; cited from earlier work
T1 sequence (Q14721 1-858): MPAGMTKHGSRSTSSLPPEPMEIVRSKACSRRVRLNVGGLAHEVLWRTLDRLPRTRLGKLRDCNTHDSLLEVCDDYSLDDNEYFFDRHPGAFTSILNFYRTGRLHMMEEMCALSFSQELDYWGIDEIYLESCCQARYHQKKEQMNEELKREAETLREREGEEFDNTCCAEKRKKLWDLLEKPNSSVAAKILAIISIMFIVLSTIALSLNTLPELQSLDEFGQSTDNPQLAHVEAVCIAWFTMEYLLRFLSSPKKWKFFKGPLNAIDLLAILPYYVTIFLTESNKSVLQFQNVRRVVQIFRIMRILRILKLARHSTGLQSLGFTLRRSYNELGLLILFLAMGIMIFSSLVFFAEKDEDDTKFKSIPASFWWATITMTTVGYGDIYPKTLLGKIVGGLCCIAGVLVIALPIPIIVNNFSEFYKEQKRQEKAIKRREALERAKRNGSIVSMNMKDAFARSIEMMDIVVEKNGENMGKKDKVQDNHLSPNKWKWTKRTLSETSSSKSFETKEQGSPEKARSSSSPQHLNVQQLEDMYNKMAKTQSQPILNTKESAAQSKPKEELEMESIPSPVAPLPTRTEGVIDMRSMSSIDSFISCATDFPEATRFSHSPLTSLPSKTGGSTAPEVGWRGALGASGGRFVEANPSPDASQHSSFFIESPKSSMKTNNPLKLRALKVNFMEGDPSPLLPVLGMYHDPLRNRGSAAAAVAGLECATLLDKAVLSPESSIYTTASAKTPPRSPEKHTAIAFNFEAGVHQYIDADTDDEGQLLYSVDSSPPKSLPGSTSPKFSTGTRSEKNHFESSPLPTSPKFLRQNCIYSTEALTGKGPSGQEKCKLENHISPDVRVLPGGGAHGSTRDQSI

[6] = target: Kv1.5 (Homo sapiens, UniProt P22460); conditions: Table 4; cited from earlier work
[7] = target: KCa3.1 (Homo sapiens, UniProt O15554); conditions: Table 4; cited from earlier work
[8] = target: Kv1.6 (Homo sapiens, UniProt P17658); conditions: Table 4; read-out: IC50 Others: Kv1.6; cited from earlier work
[9] = target: Kv1.4 (Homo sapiens, UniProt P22459); conditions: Table 4; read-out: IC50 Others: Kv1.4; cited from earlier work
[10] = target: T2, Kv2.1 T359S K360G A366D S367A I383M Y384T K386V (Homo sapiens, UniProt Q14721, A366D/I383M/K360G/K386V/S367A/T359S/Y384T); conditions: Table 5; read-out: IC50, channel Kv2.1 T359S K360G A366D S367A I383M Y384T K386V; cited from earlier work
T2 sequence (Q14721 1-858 T359S/K360G/A366D/S367A/I383M/Y384T/K386V): T1 sequence (Q14721 1-858) with T359S, K360G, A366D, S367A, I383M, Y384T, K386V

[11] = Table 5, read-out: IC50, channel Kv1.3
[12] = Table 5, read-out: IC50, channel Kv1.1
[13] = Table 5, read-out: IC50, channel Kv1.2

Kv1.3, sequence (P22001 whole entry): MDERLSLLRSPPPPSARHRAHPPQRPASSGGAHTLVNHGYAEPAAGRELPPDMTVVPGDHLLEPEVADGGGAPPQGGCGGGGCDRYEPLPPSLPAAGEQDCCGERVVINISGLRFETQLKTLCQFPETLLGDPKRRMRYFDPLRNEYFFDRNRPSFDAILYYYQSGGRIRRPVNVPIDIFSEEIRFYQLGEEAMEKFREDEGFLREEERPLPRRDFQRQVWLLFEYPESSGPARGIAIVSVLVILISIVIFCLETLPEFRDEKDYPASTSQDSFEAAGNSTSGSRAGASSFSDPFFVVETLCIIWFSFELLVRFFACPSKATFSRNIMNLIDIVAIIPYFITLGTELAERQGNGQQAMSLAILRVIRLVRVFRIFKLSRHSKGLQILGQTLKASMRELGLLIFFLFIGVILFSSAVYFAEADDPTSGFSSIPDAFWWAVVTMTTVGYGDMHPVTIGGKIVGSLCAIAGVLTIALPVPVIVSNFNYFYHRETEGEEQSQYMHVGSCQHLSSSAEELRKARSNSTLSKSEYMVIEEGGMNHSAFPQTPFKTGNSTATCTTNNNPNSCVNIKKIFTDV
Kv1.1, sequence (Q09470 whole entry): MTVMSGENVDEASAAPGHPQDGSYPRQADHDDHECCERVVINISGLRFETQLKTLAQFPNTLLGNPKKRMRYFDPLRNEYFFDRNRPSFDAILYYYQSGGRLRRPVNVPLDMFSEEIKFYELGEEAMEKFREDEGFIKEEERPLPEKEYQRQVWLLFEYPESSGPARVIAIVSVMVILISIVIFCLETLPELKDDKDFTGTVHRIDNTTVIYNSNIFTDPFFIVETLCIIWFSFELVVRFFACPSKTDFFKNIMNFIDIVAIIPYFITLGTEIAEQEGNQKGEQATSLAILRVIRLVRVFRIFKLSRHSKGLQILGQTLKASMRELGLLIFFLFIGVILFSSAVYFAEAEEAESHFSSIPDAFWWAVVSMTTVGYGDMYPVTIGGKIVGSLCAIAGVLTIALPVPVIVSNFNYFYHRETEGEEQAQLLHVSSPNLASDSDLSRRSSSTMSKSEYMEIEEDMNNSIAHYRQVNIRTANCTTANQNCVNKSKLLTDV
Kv1.2, sequence (P16389 whole entry): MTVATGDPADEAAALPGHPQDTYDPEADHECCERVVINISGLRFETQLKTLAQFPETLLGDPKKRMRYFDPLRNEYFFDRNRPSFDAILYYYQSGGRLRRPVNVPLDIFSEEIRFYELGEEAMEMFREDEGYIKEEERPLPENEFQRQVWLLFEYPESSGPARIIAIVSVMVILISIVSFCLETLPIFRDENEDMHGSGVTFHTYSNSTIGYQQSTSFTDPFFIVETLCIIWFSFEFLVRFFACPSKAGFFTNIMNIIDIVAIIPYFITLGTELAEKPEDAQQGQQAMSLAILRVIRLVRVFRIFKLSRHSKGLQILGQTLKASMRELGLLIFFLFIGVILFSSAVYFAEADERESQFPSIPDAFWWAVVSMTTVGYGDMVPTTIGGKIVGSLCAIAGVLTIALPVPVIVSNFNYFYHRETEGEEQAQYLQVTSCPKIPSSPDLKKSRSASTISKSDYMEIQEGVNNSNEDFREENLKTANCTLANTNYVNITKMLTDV
Shaker, sequence (P08510 with tags, fused parts or gaps DUP563-563/Q583H/L584V): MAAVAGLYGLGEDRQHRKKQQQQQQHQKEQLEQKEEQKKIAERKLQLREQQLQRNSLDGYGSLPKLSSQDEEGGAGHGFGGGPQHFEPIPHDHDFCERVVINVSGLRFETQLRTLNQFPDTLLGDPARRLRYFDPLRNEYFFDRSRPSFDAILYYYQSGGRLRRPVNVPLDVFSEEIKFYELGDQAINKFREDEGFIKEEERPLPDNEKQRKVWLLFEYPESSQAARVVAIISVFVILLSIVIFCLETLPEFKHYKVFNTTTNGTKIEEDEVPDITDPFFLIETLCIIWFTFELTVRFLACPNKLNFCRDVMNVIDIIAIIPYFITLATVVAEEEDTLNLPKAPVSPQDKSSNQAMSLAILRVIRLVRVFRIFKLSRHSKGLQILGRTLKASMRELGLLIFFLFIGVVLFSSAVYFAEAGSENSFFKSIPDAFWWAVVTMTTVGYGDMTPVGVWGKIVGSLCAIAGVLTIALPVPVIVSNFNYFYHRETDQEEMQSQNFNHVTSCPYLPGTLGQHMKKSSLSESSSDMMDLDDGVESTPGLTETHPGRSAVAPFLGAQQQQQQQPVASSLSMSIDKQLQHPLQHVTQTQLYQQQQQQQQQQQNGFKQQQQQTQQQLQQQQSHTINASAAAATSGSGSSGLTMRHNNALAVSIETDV
Kv1.6, sequence (P17658 whole entry): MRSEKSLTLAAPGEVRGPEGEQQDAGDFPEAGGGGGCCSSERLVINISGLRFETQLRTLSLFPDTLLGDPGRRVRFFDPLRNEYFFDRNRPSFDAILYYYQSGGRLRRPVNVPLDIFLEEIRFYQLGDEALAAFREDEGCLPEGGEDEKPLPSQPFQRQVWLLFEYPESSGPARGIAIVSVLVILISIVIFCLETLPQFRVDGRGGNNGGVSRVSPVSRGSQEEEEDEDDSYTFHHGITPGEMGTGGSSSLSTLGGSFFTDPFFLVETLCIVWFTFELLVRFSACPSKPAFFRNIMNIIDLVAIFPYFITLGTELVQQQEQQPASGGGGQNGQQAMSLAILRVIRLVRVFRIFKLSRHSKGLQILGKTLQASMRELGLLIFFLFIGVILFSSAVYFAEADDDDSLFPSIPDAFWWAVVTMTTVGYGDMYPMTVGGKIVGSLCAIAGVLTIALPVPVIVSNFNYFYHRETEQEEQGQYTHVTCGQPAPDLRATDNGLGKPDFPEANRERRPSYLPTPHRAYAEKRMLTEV
Kv1.5, sequence (P22460 whole entry): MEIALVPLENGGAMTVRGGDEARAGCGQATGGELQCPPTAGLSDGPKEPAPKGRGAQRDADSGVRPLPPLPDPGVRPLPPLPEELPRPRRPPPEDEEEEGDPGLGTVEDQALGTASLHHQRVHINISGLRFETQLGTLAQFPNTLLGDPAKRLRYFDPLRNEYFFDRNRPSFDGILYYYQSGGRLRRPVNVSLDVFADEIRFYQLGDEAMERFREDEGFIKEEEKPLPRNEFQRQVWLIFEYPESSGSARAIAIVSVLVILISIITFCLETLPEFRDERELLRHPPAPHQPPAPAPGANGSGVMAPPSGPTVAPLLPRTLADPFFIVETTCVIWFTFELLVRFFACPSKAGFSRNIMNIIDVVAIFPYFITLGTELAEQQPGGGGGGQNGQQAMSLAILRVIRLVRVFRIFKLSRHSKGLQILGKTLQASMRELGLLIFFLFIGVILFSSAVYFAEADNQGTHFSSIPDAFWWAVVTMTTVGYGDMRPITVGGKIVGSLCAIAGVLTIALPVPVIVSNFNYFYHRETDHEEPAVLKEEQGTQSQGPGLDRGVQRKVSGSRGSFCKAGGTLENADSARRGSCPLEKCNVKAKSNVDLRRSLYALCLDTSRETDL
KCa3.1, sequence (O15554 whole entry): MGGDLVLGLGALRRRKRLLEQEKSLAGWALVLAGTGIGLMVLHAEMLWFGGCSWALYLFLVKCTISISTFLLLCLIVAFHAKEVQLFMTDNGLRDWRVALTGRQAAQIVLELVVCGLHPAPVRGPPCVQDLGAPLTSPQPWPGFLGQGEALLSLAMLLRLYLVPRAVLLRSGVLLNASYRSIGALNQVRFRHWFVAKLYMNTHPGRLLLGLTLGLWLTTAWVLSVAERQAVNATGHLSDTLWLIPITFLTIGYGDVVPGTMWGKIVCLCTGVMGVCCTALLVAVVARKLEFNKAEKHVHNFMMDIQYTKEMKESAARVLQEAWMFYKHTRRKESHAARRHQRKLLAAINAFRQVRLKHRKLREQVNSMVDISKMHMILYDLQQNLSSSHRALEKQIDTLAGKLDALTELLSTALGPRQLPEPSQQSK
Kv1.4, sequence (P22459 whole entry): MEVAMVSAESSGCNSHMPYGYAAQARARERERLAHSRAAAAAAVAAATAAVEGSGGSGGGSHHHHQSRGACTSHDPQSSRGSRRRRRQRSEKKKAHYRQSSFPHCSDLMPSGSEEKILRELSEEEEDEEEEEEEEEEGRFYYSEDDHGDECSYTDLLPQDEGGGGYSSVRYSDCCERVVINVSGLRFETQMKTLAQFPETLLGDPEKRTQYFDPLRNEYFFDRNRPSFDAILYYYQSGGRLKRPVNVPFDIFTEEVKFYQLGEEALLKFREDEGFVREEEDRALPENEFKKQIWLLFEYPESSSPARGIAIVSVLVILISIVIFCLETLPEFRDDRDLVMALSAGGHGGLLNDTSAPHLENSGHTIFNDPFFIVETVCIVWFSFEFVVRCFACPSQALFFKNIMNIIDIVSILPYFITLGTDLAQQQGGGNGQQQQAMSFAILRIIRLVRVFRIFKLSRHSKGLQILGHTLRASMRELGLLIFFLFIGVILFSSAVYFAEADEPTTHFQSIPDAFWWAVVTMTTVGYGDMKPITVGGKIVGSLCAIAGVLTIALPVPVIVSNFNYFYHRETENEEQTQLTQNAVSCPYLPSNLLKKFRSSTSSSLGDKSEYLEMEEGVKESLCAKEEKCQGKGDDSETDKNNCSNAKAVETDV

Molecule	IC50 [1, 11] [nM]	IC50 [2, 12] [nM]	IC50 [3, 13] [nM]	IC50 [5] [nM]	IC50 [8] [nM]	also measured
Charybdotoxin [Charybdotoxin (ChTX)]	0.19	1500	14	> 2000	–	IC50 ([1]; Table 3, read-out: IC50 Values of Kv1.3 ion channel modulating agent): 0.19 nM; IC50 ([4]; read-out: IC50, channel Shaker): 227 nM
O=c1ccc2c(OCCCCOc3ccccc3)c3ccoc3cc2o1 [PAP-1]	–	–	–	–	31000	IC50 ([2]; Table 4, read-out: IC50 Kv1.1): 65 nM; IC50 ([3]; Table 4, read-out: IC50 Kv1.2): 250 nM; IC50 [6]: 45 nM; IC50 [7]: 10000 nM; IC50 [9]: 170 nM
O=c1ccc2c(OCCCCc3ccccc3)c3ccoc3cc2o1 [Psora-4]	–	–	–	–	62	–
hanatoxin [HaTx]	> 500	> 500	> 2000	107	–	IC50, channel Shaker ([4]; result in words): Weak; IC50 [10]: 102 nM
